For one data set, the system named is HEK293 cells. Also on record: method as in PMID 21058726. Conditions: 24 h cytotoxicity, MTT assay; cited from earlier work. In general terms: Tetrazolium assays rely on reduction of a dye to a coloured formazan, in cell work by metabolically active cells.
In data set [1] the test system is LNCaP cells (androgen-dependent). On the set-up: method as in PMID 28339198. The settings on record: mitogenesis inhibition, dye assay, WST-8; cited from earlier work.
Data set [2] deals with PC3 human prostate adenocarcinoma cells (p53-null). Also on record: method as in PMID 28339198. The settings on record: mitogenesis inhibition, dye assay, WST-8; cited from earlier work.
The test system of data set [3] is HCT116^−/− human colon carcinoma cells. Also on record: method as in PMID 28339198. Conditions: cited from earlier work.
In data set [4] the test system is HCT116^+/+ human colon carcinoma cells. Also on record: method as in PMID 28339198. The settings on record: cited from earlier work.
In data set [5] the test system is MCF7 cells (hormone-dependent). Also on record: method as in PMID 23802716. The settings on record: cited from earlier work.
The next data set deals with PC3 cell line. Also on record: method as in PMID 23802716. The settings on record: cited from earlier work.
Data set [6] concerns p53 expression level in p53wt A549 cell line. Description: p53 activation, β-galactosidase reporter construction. The settings on record: high concentrations (>100 μM), 24 h.
Description: The β-galactosidase reporter construction equipped with the p53 promotor frame [46] was used to assess the p53 expression level in p53wt A549 cell line. The compounds were tested in the concentration range of 0.5–120 μM with triple dilution steps. The incubation time was 24 h. To take into account the toxic effect of the molecules, the output signal was normalized considering the number of the cells estimated by MTT test with the same incubation tome (24 h). The output was statistically significant if the background signal was exceeded two or more times.
Data set [7] concerns A549 human lung adenocarcinoma epithelial cell line. Description: MTT cytotoxicity test, A549. Conditions: 72 h incubation. Format: cell-based.
The subject of data set [8] is LNCaP human prostate cancer cell line. Description: MTT cytotoxicity test, LNCaP. Format: cell-based. Conditions: MTT test; for CC50: Homo sapiens, LNCaP, read-out: CC50, LNCaP.
The nature of data set [9]: MTT cytotoxicity test, Hek293T. The settings on record: human, 72 h incubation. It is filed as cell-based.
The test system of data set [10] is PC3 human prostate cancer cell line. Description: MTT cytotoxicity test, PC3. Conditions: Homo sapiens. It is filed as cell-based.
Data set [11] deals with MCF7 breast cancer cell line. Description: MTT cytotoxicity test, MCF7. Format: cell-based. Conditions: Homo sapiens, 72 h incubation. How it is done:
(§1) MTT test. […] Assays were performed in triplicates.

Data set [12] in a line: MTT cytotoxicity test, VA13. Format: cell-based. Conditions: human, VA13 SV40-transformed normal lung fibroblast cells, 72 h incubation. The procedure:
as §1

The subject of data set [13] is HCT116^+/+ human colon cancer cells (p53 positive). Description: MTT cytotoxicity test, HCT116 p53+/+. Conditions: Homo sapiens, HCT-116, read-out: CC50, HCT^+/+. The text has this: (§2) The used models included human prostate cancer cell lines LNCaP and PC3, breast cancer cell line (MCF-7), human colon cancer cells (HCT116^+/+, p53 positive, p53^+/+ and HCT116^−/−, p53 negative, p53^−/−), human lung adenocarcinoma epithelial cell line (A549), SV40-transformed normal human lung fibroblast cells (VA13), as well as human embryonic kidney 293 cells (Hek293) stably expressing SV40 large T antigen (Hek293T). The cytotoxicity of the evaluated molecules was properly assessed using a MTT assay based on the modified approach reported by Ferrari and colleagues.
(§3) To further elucidate the dominant mode of action, we used HCT116^+/+ and HCT116^−/− cells by analogy with the paper published by Shangary and colleagues. This isogenic cell line is commonly applied to investigate the p53/MDM2-dependent mode of action.
(§4) MTT test. The MTT assay was carried out according to [35] with few modifications; 3000 Cells (for HEK293T, A549 and MCF7cell lines) or 4000 cells (for VA13 cell line) were seeded in each well of a 96-well plate. […] Assays were performed in triplicates. […] The MTT solution was then discarded and 140 µL of DMSO was added. The plates were swayed on a shaker (60 rpm) to solubilize the formazan. […] The analysis of cytotoxicity and the estimation of IC50 values were carried out with the built-in functions in the GraphPad Prism program (GraphPad Software, Inc., San Diego, CA) P53 activation.

For data set [14], the system named is HCT116^−/− human colon cancer cells (p53 negative). Description: MTT cytotoxicity test, HCT116 p53-/-. Conditions: HCT-116, read-out: CC50, HCT^−/−.
Text: as §2, §3, §4

The test system of a further data set is HCT116 cells. On the set-up: method as in PMID 24997575. Conditions: MTT assay; cited from earlier work.

For `O=C1C2CCC3(C(=O)Nc4ccccc43)C2C(=O)N1Cc1ccc(Cl)cc1` (stereo not shown) [Compound IV], the CC50 in the data set on HEK293 cells was 0.44 µM.
On to `CCN1[C@@H](C(=O)CC23CCC(C(=O)O)(CC2)CC3)[C@H](c2ccc(F)c(Cl)c2)C2(C(=O)Nc3cc(Cl)ccc32)C12CCCCC2` (stereo partly shown) [II], for which the IC50 in [1] was 0.018 ± 0.013 µM; in data set [2] it was 22 µM; in data set [3], 8 µM; in data set [4], 0.1 µM. The “selectivity towards p53-positive cells” value in data set [4] (HCT116^+/+ vs HCT116^−/−) is 80 fold.
On to `CCOC(=O)C1CSC2(C(=O)N(C)c3ccc(Br)cc32)N1C(=O)C1CCCCC1` (stereo not shown) [VI], for which the IC50 in data set [5] was 0.04 µM; in the data set on PC3 cell line, 0.41 µM.
In data set [6], `CN1CC2(NC(=O)N(c3ccc(F)c(Cl)c3)C2=O)C2(C1)C(=O)Nc1ccc(Cl)cc12` (stereo not shown) [Compound 9r, 5″-Chloro-1-(3-chloro-4-fluorophenyl)-1′-methyldispiro[imidazolidine-4,3′-pyrrolidine-4′,3″-indoline]-2,2″,5-trione] displayed a p53 activation of 2.1 fold. For the same compound, the CC50 in data set [7] is 35.3 ± 17.7 µM. Also, in [8], the CC50 stood at 19.6 ± 1.8 µM; the “CC50, LNCaP” value was “good activity”; the “selectivity on LNCaP cells over PC3 cells” value is listed as “selective”. This compound also showed a CC50 at 72 h in [9] of 15.1 ± 1.2 µM. Also, in [10], the CC50 was more than 50 µM.
Turning to `CN1CC2(NC(=S)N(Cc3cccc(Cl)c3)C2=O)C2(C1)C(=O)Nc1ccccc12` (stereo not shown) [Compound 4o, 1′-Methyl-1-(3-chlorobenzyl)-2-thioxodispiro[imidazolidine-4,3′-pyrrolidine-4′,3″-indoline]-2″,5-dione], the melting point was 273 to 274 °C. In data set [7], this compound returned a CC50 of 53.4 ± 11.2 µM. This compound also yielded a CC50 in data set [11] of 23.2 ± 3.6 µM. In [12], this compound yielded a CC50 at 72 h of 36.3 ± 3.2 µM. Also, the CC50 in data set [8] was more than 100 µM. Also, in [9], the CC50 at 72 h stood at 48 ± 5.3 µM. In addition, the CC50 in data set [13] was more than 100 µM. This compound came in with a CC50 in data set [10] of more than 100 µM. Further, the CC50 in data set [14] is more than 100 µM.
For the compound `CC(C)(C)CC1N[C@@H](C(=O)Nc2ccc(C(N)=O)cc2)[C@H](c2ccc(F)c(Cl)c2)C12C(=O)Nc1cc(Cl)ccc12` (stereo partly shown) [Compound V], in the data set on HCT116 cells, the IC50 was 0.09 µM.

In general, IC50 refers to the concentration that gives 50% inhibition. Usually melting point stands for the temperature of the solid-liquid transition.

(Values after PMC8703884, “Synthesis and Biological Evaluation of S-, O- and Se-Containing Dispirooxindoles” (Molecules, 2021).)
